Data reported in patent US8853274B1, “Compositions and methods for targeting glioblastomas cells” (Vanderbilt University, priority 2011, dated 2014).

Tests used:
[1] = system: intracranial T4302 tumors; assay: Orthotopic GBM model, survival and tumor burden; assay type: in vivo, Athymic nude mice
Experimental: (A, B) T4302 CD133+ cells were treated with 100 nM GSI±FTI for 48 hours and lysed in RIPA buffer. Mice bearing intracranial T4302 tumors were orally treated with 30 mg/kg/day GSI once a day (q.d.)±100 mg/kg/day FTI twice a day (b.i.d.) for 7 days. Brains were resected and homogenized in RIPA buffer. All lysates were blotted with an antibody specific to prelamin A. (B) Additional brains were fixed and resected for IHC staining for cleaved Notch1. (C) T4302 CD133+ cells were infected with lentivirus expressing firefly luciferase and selected with puromycin for two days. Athymic nude mice were intracranially implanted with 5,000 cells, maintained for 10 days, and treated with GSI±FTI for 20 days as described above. In a separated experiment, animals were treated by the same protocol, except they were given 2 doses of 4 Gy X-ray irradiation on day 11 and day 12, 4 hours after drug administration. These mice were on drugs for 30 days. The median survival was calculated by the GraphPad Prism 5 software. (D) Animals in the unirradiated experiment were tracked for their tumor progression by bioluminescence imaging. The Y axis is set in a log scale. (E,F) The survival curves of these two experiments are shown.
Mice were first anesthetized using an isoflurane inhalation system and maintained on the nose cone during the procedure. 5,000 CD 133+ GSC cells suspended in 10 μl PBS were implanted into the right cerebrum with 30 gauge needles. Animals were maintained for 10 days to allow tumor establishment. Before treatment, any mouse showing distress or neurological signs (e.g. lethargy, hemiparesis, ataxia, seizures) would be euthanized. The remaining mice will be randomized to treatment groups just prior to treatment. […]
Mice were weighted and visually inspected daily once treatments begin. Tumor development was monitored by bioluminescence imaging every week. […] The primary readout of the in vivo tests is the median survival calculated by the Kaplan-Meier estimator using the GraphPad Prism5 software. Drug efficacy was also be assessed by tumor sizes estimated by bioluminescence imaging.

T4302 CD133− cells = assay: Growth / survival of non-stem GBM cells; assay type: cell-based, human; details: day 5
Experimental: (A, B) T4302 CD133+ cells were treated with 100 nM RO4929097 (GSI) and/or 100 nM tipifarnib (FTI) for 4 hours prior to 3 Gy radiation. (A) Cell growth on day 5 and (B) caspase 3/7 activation on day 3 were determined as described in FIG. 4. #: p<0.001 by one-way ANOVA, combo vs. single agents. (C) The effects of GSIs and FTI against growth of T4302 CD133− cells were determined as described in panel A. (D, E) T4302 CD133+ cells were treated with GSI, FTI, or a 1:1 mixture at different concentrations (ranging from 3000 nM to ˜0.5 nM, 1:3 dilution)±3 Gy radiation. Cell viability was determined at 5 days after treatment in comparison to vehicle-treated groups. […] (F) T4302 CD 133+ cells were treated by GSI±FTI with a 2-fold dilution. Neurospheres were countered on day 10, and normalized to the vehicle-treated group.
Tumor cells are enzymatically dissociated from freshly collected subcutaneous xenograft tumors and cultured overnight before sorting. The CD133− and CD133+ fractions are separated either by magnetic sorting using the CD133 Microbead kit (Miltenyi Biotech), or labeled with APC-conjugated CD133 antibody (Miltenyi Biotech) and sorted by flow cytometry. CD133+ cells are maintained in neurobasal media supplemented with 2% B-27, 20 ng/ml EGF, and 20 ng/ml bFGF. […]

CC(C)(C(=O)NCC(F)(F)C(F)(F)F)C(=O)N[C@@H]1C(=O)Nc2ccccc2-c2ccccc21 [RO4929097]
survival benefit, in words ([1]; unirradiated, 20 days oral treatment): did not produce significant benefits | survival benefit, in words ([1]; with 2 doses of 4 Gy local X-ray, 30 days oral treatment): some modest effects | mice free of tumor burden / sustained control of orthotopic GBM ([1]; with radiation, ~day 80): 1 out of 8 | effect on growth of CD133− non-stem GBM cells (T4302 CD133− cells): largely insensitive
